# Values quoted from earlier work in patent US11324828B2, “Hydrogel polymeric compositions and methods” (Incept, LLC, priority 2007, dated 2022).
# Read-outs that look alike come from different tables or passages of the source.
# Assays:
# [1] = not given; remark: listed apart in the source
SMILES,water solubility [1],Solubility (in water),further results
CCc1cccc2c3c([nH]c12)C(CC)(CC(=O)O)OCC3 (stereo not drawn) [Etodolac],–,Insoluble in water,–
Cc1ccc(Cl)c(Nc2ccccc2C(=O)[O-])c1Cl.[Na+] [Meclofenamate Sodium],–,–,Solubility (@ pH 7.2): <50 μg/mL @ pH 7.2 50 mg/mL @ pH 9.0
NC(=O)Cc1cccc(C(=O)c2ccccc2)c1N [Nepafenac],–,–,Solubility (no pH or medium printed): <1 mg/ml (The drug is available as 0.1% suspension)
CC(C(=O)[O][Ca][O]C(=O)C(C)c1cccc(Oc2ccccc2)c1)c1cccc(Oc2ccccc2)c1 (stereo not drawn) [Fenoprofen Calcium],–,Slightly soluble in water,–

# The next lines start with results.
water solubility [1],SMILES,Solubility (in water),further results
about 86 mg/L,CCCCN1CCCCC1C(=O)Nc1c(C)cccc1C (stereo not drawn) [Bupivacaine],–,–
about 1113 mg/L,O=C(O)Cc1ccccc1Nc1c(Cl)cccc1Cl [Diclofenac Sodium],–,–
